Assay results reported in patent publication US10793563B2, “GCN2 inhibitors and uses thereof” (Merck Patent GmbH, priority 2018, dated 2020).
Read-outs that look alike come from different tables or passages of the source.

Columns and labels:
[1] = biological target: GCN2 kinase (Homo sapiens (Human), UniProt Q9P2K8); experiment: GCN2 Enzyme Inhibition Assay (Transcreener ADP2 fluorescence polarization); assay type: biochemical; details: 280 μM ATP, 200 μM (RS)7 peptide, 4 nM GCN2, 25° C.; for Ki: Ki(app)
Chain of GCN2 kinase (Q9P2K8 whole entry): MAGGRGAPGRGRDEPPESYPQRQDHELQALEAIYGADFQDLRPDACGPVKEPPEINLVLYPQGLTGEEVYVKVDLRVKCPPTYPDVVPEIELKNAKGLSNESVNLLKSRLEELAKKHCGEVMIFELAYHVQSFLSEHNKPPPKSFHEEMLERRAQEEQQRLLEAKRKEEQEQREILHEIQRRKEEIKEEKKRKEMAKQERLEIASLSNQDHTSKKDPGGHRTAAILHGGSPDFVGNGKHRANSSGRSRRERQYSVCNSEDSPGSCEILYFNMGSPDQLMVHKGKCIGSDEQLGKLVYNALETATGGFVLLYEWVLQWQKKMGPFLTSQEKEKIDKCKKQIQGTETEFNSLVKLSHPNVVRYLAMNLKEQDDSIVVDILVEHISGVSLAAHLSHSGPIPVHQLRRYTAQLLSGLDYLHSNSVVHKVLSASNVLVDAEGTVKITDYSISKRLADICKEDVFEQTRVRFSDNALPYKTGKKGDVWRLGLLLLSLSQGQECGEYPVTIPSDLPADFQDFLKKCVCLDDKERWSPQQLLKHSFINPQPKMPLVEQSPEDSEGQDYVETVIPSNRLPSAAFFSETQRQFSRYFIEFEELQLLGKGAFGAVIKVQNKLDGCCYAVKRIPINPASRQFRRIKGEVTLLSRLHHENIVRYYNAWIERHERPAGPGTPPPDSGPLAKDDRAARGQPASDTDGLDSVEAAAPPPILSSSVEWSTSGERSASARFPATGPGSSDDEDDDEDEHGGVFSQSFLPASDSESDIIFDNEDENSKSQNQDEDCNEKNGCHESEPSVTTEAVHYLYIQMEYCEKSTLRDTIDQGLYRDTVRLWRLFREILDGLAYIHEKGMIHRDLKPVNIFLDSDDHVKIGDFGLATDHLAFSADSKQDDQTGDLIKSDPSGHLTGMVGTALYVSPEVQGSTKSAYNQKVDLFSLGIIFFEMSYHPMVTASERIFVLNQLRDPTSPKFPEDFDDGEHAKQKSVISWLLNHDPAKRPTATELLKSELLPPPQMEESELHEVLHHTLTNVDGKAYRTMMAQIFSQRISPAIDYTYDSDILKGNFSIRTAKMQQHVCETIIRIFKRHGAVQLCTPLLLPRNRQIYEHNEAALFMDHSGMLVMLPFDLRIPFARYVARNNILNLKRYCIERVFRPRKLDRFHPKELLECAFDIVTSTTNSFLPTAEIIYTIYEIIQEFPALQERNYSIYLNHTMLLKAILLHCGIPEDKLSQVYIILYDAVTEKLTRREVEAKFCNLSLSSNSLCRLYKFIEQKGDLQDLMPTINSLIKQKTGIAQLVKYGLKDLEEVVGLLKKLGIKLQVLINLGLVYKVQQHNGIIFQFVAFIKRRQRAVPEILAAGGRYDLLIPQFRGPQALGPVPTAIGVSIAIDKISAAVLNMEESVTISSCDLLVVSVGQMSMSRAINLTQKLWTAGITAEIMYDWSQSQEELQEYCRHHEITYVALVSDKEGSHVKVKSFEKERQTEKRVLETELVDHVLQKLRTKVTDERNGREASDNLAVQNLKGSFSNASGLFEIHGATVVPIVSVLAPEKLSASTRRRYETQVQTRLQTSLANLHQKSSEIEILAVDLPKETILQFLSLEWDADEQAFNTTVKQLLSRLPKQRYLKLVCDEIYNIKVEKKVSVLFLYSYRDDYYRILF
Outline: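 At 25 °C, GCN2 kinase (typical final concentration 4 nM) and (RS)7 peptide in Tris-HCl pH 7.5 buffer with MgCl2, NaCl and DTT were preincubated with compound for 10 min, then ATP was added for a 1 h reaction. ADP was read by FP with antibody/Alexa633 tracer. Non-linear tight-binding analysis gave IC50 and apparent Ki.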

[2] = biological target: intracellular GCN2 (phosphorylation of the GCN2 substrate eIF2α) (Homo sapiens (Human), UniProt Q9P2K8); experiment: GCN2 Cellular Inhibition Assay (AlphaScreen SureFire P-eIF2α Ser51, borrelidin-treated U2OS cells); assay type: cell-based; details: 10 μM borrelidin, 1 h
Chain of intracellular GCN2 (phosphorylation of the GCN2 substrate eIF2α) (Q9P2K8 whole entry): as above
Procedure: Compounds can be screened for their ability to inhibit intracellular GCN2 using an AlphaScreen assay (Perkin Elmer) to detect phosphorylation of the GCN2 substrate eIF2α in borrelidin-treated cells. U2OS cells are plated at 5,000 cells per well in 384-well white polystyrene plates (Corning 3570) in McCoy's 5A media (GIBCO 26600-023) supplemented with 10% foetal bovine serum (SAFC 12103C), Penicillin/Streptomycin solution diluted 1:100 (Sigma P0781), and 2 mM L-glutamine (Sigma G7513), and allowed to adhere overnight at 37° C. in 5% CO2. Compounds are then added to the cell media from a final concentration of 40 μM in 4-fold serial dilutions. Borrelidin (FluoroChem M01440) is immediately added to the wells to a final concentration of 10 μM and the cells are incubated for 1 h at 37° C. in 5% CO2. After 1 h of treatment with borrelidin, the media is removed, and the cells are lysed with lysis buffer (TGR BioSceinces TGRLB) at ambient temperature.
An AlphaScreen SureFire P-eIF2α (Ser51) assay kit (Perkin Elmer TGREIF2S) was used to measure levels of eIF2α phosphorylated on Serine 51. Anti-phosphorylated eIF2α Ser51 antibody-linked acceptor beads (TGR BioScience 6760617) are added to the cell homogenate (diluted 1:250 into a mixture of activation (TGR BioScience TGRAB) and reaction buffer (TGR BioScience TGREIF2S) prepared immediately before use). The plate is then incubated for 2 h at ambient temperature in the dark. Anti-eIF2α antibody-linked donor beads (TGR BioScience 6760617) were then added (diluted 1:100 in dilution buffer (TGR BioScience TGRDB) prepared immediately before use). The plate is then incubated overnight at ambient temperature in the dark.
Plates are analyzed on an Alpha Technology-compatible PHERAstar FS plate reader (BMG Labtech Version 1.14) to quantify phosphorylated eIF2α Ser51 levels. The percentage inhibition of phosphorylated eIF2α is calculated by comparison to control wells stimulated with borrelidin alone.

[3] = GCN2 Biomarker (IC50), phosphorylated eIF2α Ser51
[4] = phosphorylated eIF2α Ser51, read-out: GCN2 Biomarker (IC50)

SMILES	Ki [1] [nM]	IC50 [1] [nM]	IC50 [2, 4] [nM]	IC50 [2, 3] [nM]
O=C(Nc1cn[nH]c1)[C@H]1CCCN(c2ccnc(-c3cnc4cc(F)c(Cl)cn34)n2)C1 [I-58, (S)-1-[2-(6-Chloro-7-fluoro-imidazo[1,2-a]pyridine-3-yl)-pyrimidin-4-yl]-piperidine-3-carboxylic acid (1H-pyrazol-4-yl)-amide]	10 to 100			500 to 5000
CC1CC(CS(C)(=N)=O)C(C)N(c2ccnc(-c3cnc4ccc(Cl)cn34)n2)C1 (stereo not shown) [I-47, ((1-(2-(6-Chloroimidazo[1,2-a]pyridin-3-yl)pyrimidin-4-yl)-2,5-dimethylpiperidin-3-yl)methyl)(imino)(methyl)-λ^6-sulfanone]	< 10		500 to 5000	
CS(=O)(=O)N1CC2(CN(c3ccnc(-c4cnc5ccc(C(F)(F)F)cn45)n3)CCO2)C1 [I-447, 2-(methylsulfonyl)-8-(2-(6-(trifluoromethyl)imidazo[1,2-a]pyridin-3-yl)pyrimidin-4-yl)-5-oxa-2,8-diazaspiro[3.5]nonane]		10 to 100	500 to 5000	
CC1CN(c2nccc(-c3cnc4ccc(C(F)(F)F)cn34)n2)C(C)C(c2cn[nH]c2)N1 (single isomer, unassigned) [I-33, 3-[2-[2,5-Dimethyl-3-(1H-pyrazol-4-yl)piperazin-1-yl]pyrimidin-4-yl]-6-(trifluoromethyl)imidazo[1,2-a]pyridine]	10 to 100		> 5000	
CS(=O)(=O)NC1CC(C(F)(F)F)CN(c2ccnc(-c3cnc4ccc(C(F)F)cn34)n2)C1 (stereo not shown) [I-531, N-(1-(2-(6-(difluoromethyl)imidazo[1,2-a]pyridin-3-yl)pyrimidin-4-yl)-5-(trifluoromethyl)piperidin-3-yl)methanesulfonamide]		10 to 100	< 500	
FC(F)(F)c1ccc2ncc(-c3nccc(N4CCCC(n5ccc(C(F)(F)F)n5)C4)n3)n2c1 (stereo not shown) [I-355, 6-(trifluoromethyl)-3-(4-(3-(3-(trifluoromethyl)-1H-pyrazol-1-yl)piperidin-1-yl)pyrimidin-2-yl)imidazo[1,2-a]pyridine]		100 to 1000	500 to 5000	
Cc1noc([C@H]2CN(c3ccnc(-c4cnc5ccc(Cl)cn45)n3)C[C@@H](C)O2)n1 [I-54]	10 to 100			500 to 5000
N#Cc1ccc2ncc(-c3nccc(N4CCOC(c5cn[nH]c5C(F)F)C4)n3)n2c1 (stereo not shown) [I-193, 3-(4-(2-(5-(difluoromethyl)-1H-pyrazol-4-yl)morpholino)pyrimidin-2-yl)imidazo[1,2-a]pyridine-6-carbonitrile]		< 10	< 500	
CC1CCC(C(=O)O)CN1c1ccnc(-c2cnc3ccc(C(F)(F)F)cn23)n1 (stereo not shown) [I-201, 6-methyl-1-(2-(6-(trifluoromethyl)imidazo[1,2-a]pyridin-3-yl)pyrimidin-4-yl)piperidine-3-carboxylic acid]		10 to 100	500 to 5000	
CC1CC(N=S(C)(C)=O)CN(c2ccnc(-c3cnc4ccc(C(F)(F)F)cn34)n2)C1 (stereo not shown) [I-32, dimethyl((5-methyl-1-(2-(6-(trifluoromethyl)imidazo[1,2-a]pyridin-3-yl)pyrimidin-4-yl)piperidin-3-yl)imino)-λ^6-sulfanone]	10 to 100		500 to 5000	
CC(C)(C(=O)O)C1CCCN(c2ccnc(-c3cnc4ccc(Cl)cn34)n2)C1 (stereo not shown) [I-284, 2-(1-(2-(6-chloroimidazo[1,2-a]pyridin-3-yl)pyrimidin-4-yl)piperidin-3-yl)-2-methylpropanoic acid]		10 to 100	> 5000	

The next lines start with results.

Ki [1] [nM]	IC50 [1] [nM]	IC50 [2, 4] [nM]	SMILES	IC50 [2, 3] [nM]
	100 to 1000	500 to 5000	C[C@@H]1C[C@@H](NC(=O)OC(C)(C)C)CN(c2ccnc(-c3cnc4ccc(Cl)cn34)n2)C1 [I-252, tert-butyl ((3R,5R)-1-(2-(6-chloroimidazo[1,2-a]pyridin-3-yl)pyrimidin-4-yl)-5-methylpiperidin-3-yl)carbamate]	
	< 10	< 500	C[C@H]1C[C@@H](c2cn[nH]c2)CN(c2nccc(-c3cnc4ccc(Cl)cn34)n2)C1 [I-199, 6-chloro-3-(2-((3S,5S)-3-methyl-5-(1H-pyrazol-4-yl)piperidin-1-yl)pyrimidin-4-yl)imidazo[1,2-a]pyridine]	
	< 10	< 500	FC(F)(F)c1ccc2ncc(-c3ccnc(N4CCN(C[C@H]5CCCOC5)[C@H](c5cn[nH]c5)C4)n3)n2c1 [I-545, 3-(2-((R)-3-(1H-pyrazol-4-yl)-4-(((R)-tetrahydro-2H-pyran-3-yl)methyl)piperazin-1-yl)pyrimidin-4-yl)-6-(trifluoromethyl)imidazo[1,2-a]pyridine]	
	10 to 100	500 to 5000	NC(=O)[C@H]1CN(c2ccnc(-c3cnc4ccc(Cl)cn34)n2)CCN1C1CC1 [I-349, (R)-4-(2-(6-chloroimidazo[1,2-a]pyridin-3-yl)pyrimidin-4-yl)-1-cyclopropylpiperazine-2-carboxamide]	
	< 10	500 to 5000	C[C@H]1CN(c2nccc(-c3cnc4cc(F)c(Cl)cn34)n2)C[C@H](c2cn[nH]c2)O1 [I-275, (2S,6S)-4-(4-(6-chloro-7-fluoroimidazo[1,2-a]pyridin-3-yl)pyrimidin-2-yl)-2-methyl-6-(1H-pyrazol-4-yl)morpholine]	
	10 to 100	< 500	Cc1cnc(N2C[C@H](C)C[C@@H](c3cn[nH]c3)C2)nc1-c1cnc2ccc(Cl)cn12 (stereo in doubt) [I-184, 6-chloro-3-(5-methyl-2-((3R,5S)-3-methyl-5-(1H-pyrazol-4-yl)piperidin-1-yl)pyrimidin-4-yl)imidazo[1,2-a]pyridine]	
	100 to 1000	500 to 5000	C[C@H](NS(C)(=O)=O)[C@@H]1[C@H](C)N(c2ccnc(-c3cnc4ccc(C(F)(F)F)cn34)n2)CCN1C1CC1 [I-500, N—((S)-1-((2S,3 S)-1-cyclopropyl-3-methyl-4-(2-(6-(trifluoromethyl)imidazo[1,2-a]pyridin-3-yl)pyrimidin-4-yl)piperazin-2-yl)ethyl)methanesulfonamide]	
	10 to 100	500 to 5000	CC(=O)N1C(C)CN(c2ccnc(-c3cnc4ccc(Cl)cn34)n2)CC1c1cn[nH]c1 (stereo not shown) [I-277, 1-(4-(2-(6-chloroimidazo[1,2-a]pyridin-3-yl)pyrimidin-4-yl)-2-methyl-6-(1H-pyrazol-4-yl)piperazin-1-yl)ethan-1-one]	
< 10		500 to 5000	C[C@H]1CN(c2nccc(-c3cnc4ccc(C(F)F)cn34)n2)C[C@@H](CNS(C)(=O)=O)C1(F)F (stereo in doubt) [I-41, N-[[-1-[4-[6-(Difluoromethyl)imidazo[1,2-a]pyridin-3-yl]pyrimidin-2-yl]-4,4-difluoro-5-methyl-3-piperidyl]methyl]methanesulfonamide]	
	< 10	< 500	CC1CN(c2ccnc(-c3cnc4ccc(Cl)cn34)n2)CC(c2cn[nH]c2)N1 (stereo not shown) [I-266, 6-chloro-3-(4-(3-methyl-5-(1H-pyrazol-4-yl)piperazin-1-yl)pyrimidin-2-yl)imidazo[1,2-a]pyridine]	
	10 to 100	> 5000	NS(=O)(=O)C1CCCN(c2ccnc(-c3cnc4ccc(C(F)(F)F)cn34)n2)C1 (stereo not shown) [I-242, 1-(2-(6-(trifluoromethyl)imidazo[1,2-a]pyridin-3-yl)pyrimidin-4-yl)piperidine-3-sulfonamide]	
	< 10	< 500	C[C@H]1CN(c2ccnc(-c3cnc4ccc(Cl)cn34)n2)C[C@H](c2cn[nH]c2F)O1 (stereo in doubt) [I-175, (2S,6S)-4-(2-(6-chloroimidazo[1,2-a]pyridin-3-yl)pyrimidin-4-yl)-2-(5-fluoro-1H-pyrazol-4-yl)-6-methylmorpholine]	
